Source: patent US20240239792A1, “MODULATORS OF BCL-2 OR BCL-2/BCL-XL AND USES THEREOF” (APPICINE THERAPEUTICS (HK) LIMITED, priority 2021, published 2024)

Columns and labels:
DOHH2 cells = experiment: CellTiter-Glo cell proliferation assay, DOHH2 cells; format: cell-based; details: Homo sapiens, DOHH-2, 72 hours
How it was run: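 DOHH2 cells seeded in DMEM + 10% FBS, exposed to serially diluted compound for 72 h at 37 °C, 5% CO2. Viability read by CellTiter-Glo luminescence; GI50 calculated.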

BCL-2 = molecular target: T1, BCL-2 (Homo sapiens, UniProt P10415); experiment: HTRF BCL-2/BAK assay (Cisbio); format: binding; details: recombinant human Tag1-BCL-2 2 nM, Tag2-BAK 10 nM
T1 construct: purchased Cisbio 63ADK000CB01PEG
T1 sequence (P10415 whole entry): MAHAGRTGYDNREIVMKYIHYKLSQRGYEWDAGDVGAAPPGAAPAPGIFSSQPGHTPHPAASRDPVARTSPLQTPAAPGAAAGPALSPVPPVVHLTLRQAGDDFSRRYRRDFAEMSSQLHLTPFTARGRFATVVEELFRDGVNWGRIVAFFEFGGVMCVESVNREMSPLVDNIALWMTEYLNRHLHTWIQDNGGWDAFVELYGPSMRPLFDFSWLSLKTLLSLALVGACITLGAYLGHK
Method: (§1) Then the pre-mixed anti-Tag1-Eu^3+ and anti-tag2-XL665 were added to the plate and further incubated at room temperature for another 2 hours. The signals ([…]) were read on Envision 2104 instrument. The IC50 for each compound was derived from fitting the signal of 665/615 nM to the increasing compound concentration.
(§2) Using the above assays, the following compounds were tested.

BCL-XL = molecular target: T2, BCL-XL (Homo sapiens, UniProt Q07817); experiment: HTRF BCL-XL/BAK assay (Cisbio); format: binding; details: recombinant human Tag1-BCL-XL 2 nM, Tag2-BAK 5 nM
T2 construct: purchased Cisbio 63ADK000CB04PEG
T2 sequence (Q07817 whole entry): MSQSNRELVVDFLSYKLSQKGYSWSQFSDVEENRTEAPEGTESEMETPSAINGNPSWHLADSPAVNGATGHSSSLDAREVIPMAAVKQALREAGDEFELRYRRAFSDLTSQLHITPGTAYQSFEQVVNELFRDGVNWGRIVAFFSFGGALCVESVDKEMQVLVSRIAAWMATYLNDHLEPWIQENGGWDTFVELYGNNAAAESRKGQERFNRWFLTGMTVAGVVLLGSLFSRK
Method: as §1, §2

| SMILES | GI50 (DOHH2 cells) | IC50 (BCL-2) | IC50 (BCL-XL) |
| --- | --- | --- | --- |
| O=C(NS(=O)(=O)c1ccc(NCC2CCOCC2)c([N+](=O)[O-])c1)c1ccc(N2CCN(C3CCCCc4ccc(F)cc43)CC2)cc1Oc1cnc2[nH]ccc2c1 (stereo not drawn) [Compound 37, 2-((1H-pyrrolo[2,3-b]pyridin-5-yl)oxy)-4-(4-(3-fluoro-6,7,8,9-tetrahydro-5H-benzo[7]annulen-5-yl)piperazin-1-yl)-N-((3-nitro-4-(((tetrahydro-2H-pyran-4-yl)methyl)amino)phenyl)sulfonyl)benzamide] | 50 to 500 nM | < 20 nM | 200 to 2000 nM |
| O=C(NS(=O)(=O)c1ccc(NCC2CCC3(CC2)COC3)c([N+](=O)[O-])c1)c1ccc(N2CCN(C3CCCCc4c(Cl)cccc43)CC2)cc1Oc1cnc2[nH]ccc2c1 (stereo not drawn) [Compound 38, 2-((1H-pyrrolo[2,3-b]pyridin-5-yl)oxy)-N-((4-(((2-oxaspiro[3.5]nonan-7-yl)methyl)amino)-3-nitrophenyl)sulfonyl)-4-(4-(1-chloro-6,7,8,9-tetrahydro-5H-benzo[7]annulen-5-yl)piperazin-1-yl)benzamide] | < 50 nM | < 20 nM | 200 to 2000 nM |
| CC(=O)N1CCN(CCNc2ccc(S(=O)(=O)NC(=O)c3ccc(N4CCN(C5CCCCc6c(Cl)cccc65)CC4)cc3Oc3cnc4[nH]ccc4c3)cc2[N+](=O)[O-])CC1 (stereo not drawn) [Compound 39, 2-((1H-pyrrolo[2,3-b]pyridin-5-yl)oxy)-N-((4-((2-(4-acetylpiperazin-1-yl)ethyl)amino)-3-nitrophenyl)sulfonyl)-4-(4-(1-chloro-6,7,8,9-tetrahydro-5H-benzo[7]annulen-5-yl)piperazin-1-yl)benzamide] | < 50 nM | < 20 nM | 20 to 200 nM |
| O=C(NS(=O)(=O)c1ccc(NCC2CCOCC2)c([N+](=O)[O-])c1)c1ccc(N2CCN([C@@H]3CCCCc4c(O)cccc43)CC2)cc1Oc1cnc2[nH]ccc2c1 [Compound 40, (R)-2-((1H-pyrrolo[2,3-b]pyridin-5-yl)oxy)-4-(4-(1-hydroxy-6,7,8,9-tetrahydro-5H-benzo[7]annulen-5-yl)piperazin-1-yl)-N-((3-nitro-4-(((tetrahydro-2H-pyran-4-yl)methyl)amino)phenyl)sulfonyl)benzamide] | 500 to 5000 nM | 20 to 200 nM | > 2000 nM |
| O=C(NS(=O)(=O)c1ccc(NCCN2CC3CC2CO3)c([N+](=O)[O-])c1)c1ccc(N2CCN(C3CCCCc4c(Cl)cccc43)CC2)cc1Oc1cnc2[nH]ccc2c1 (stereo not drawn) [Compound 41, 2-((1H-pyrrolo[2,3-b]pyridin-5-yl)oxy)-N-((4-((2-(2-oxa-5-azabicyclo[2.2.1]heptan-5-yl)ethyl)amino)-3-nitrophenyl)sulfonyl)-4-(4-(1-chloro-6,7,8,9-tetrahydro-5H-benzo[7]annulen-5-yl)piperazin-1-yl)benzamide] | 50 to 500 nM | < 20 nM | < 20 nM |
| O=C(NS(=O)(=O)c1ccc(NCCN2CCC3(CC2)COC3)c([N+](=O)[O-])c1)c1ccc(N2CCN(C3CCCCc4c(Cl)cccc43)CC2)cc1Oc1cnc2[nH]ccc2c1 (stereo not drawn) [Compound 42, 2-((1H-pyrrolo[2,3-b]pyridin-5-yl)oxy)-N-((4-((2-(2-oxa-7-azaspiro[3.5]nonan-7-yl)ethyl)amino)-3-nitrophenyl)sulfonyl)-4-(4-(1-chloro-6,7,8,9-tetrahydro-5H-benzo[7]annulen-5-yl)piperazin-1-yl)benzamide] | 50 to 500 nM | < 20 nM | < 20 nM |
| CN1CC2CC1CN2CCNc1ccc(S(=O)(=O)NC(=O)c2ccc(N3CCN(C4CCCCc5c(Cl)cccc54)CC3)cc2Oc2cnc3[nH]ccc3c2)cc1[N+](=O)[O-] (stereo not drawn) [Compound 43, 2-((1H-pyrrolo[2,3-b]pyridin-5-yl)oxy)-4-(4-(1-chloro-6,7,8,9-tetrahydro-5H-benzo[7]annulen-5-yl)piperazin-1-yl)-N-((4-((2-(5-methyl-2,5-diazabicyclo[2.2.1]heptan-2-yl)ethyl)amino)-3-nitrophenyl)sulfonyl)benzamide] | 50 to 500 nM | < 20 nM | < 20 nM |
| CN1CC2CC1CC2CNc1ccc(S(=O)(=O)NC(=O)c2ccc(N3CCN(C4CCCCc5c(Cl)cccc54)CC3)cc2Oc2cnc3[nH]ccc3c2)cc1[N+](=O)[O-] (stereo not drawn) [Compound 44, 2-((1H-pyrrolo[2,3-b]pyridin-5-yl)oxy)-4-(4-(1-chloro-6,7,8,9-tetrahydro-5H-benzo[7]annulen-5-yl)piperazin-1-yl)-N-((4-(((2-methyl-2-azabicyclo[2.2.1]heptan-5-yl)methyl)amino)-3-nitrophenyl)sulfonyl)benzamide] | 50 to 500 nM | < 20 nM | < 20 nM |
| CN1CCc2ccccc2C(N2CCN(c3ccc(C(=O)NS(=O)(=O)c4ccc(NCC5CCOCC5)c([N+](=O)[O-])c4)c(Oc4cnc5[nH]ccc5c4)c3)CC2)C1=O (stereo not drawn) [Compound 45, 2-((1H-pyrrolo[2,3-b]pyridin-5-yl)oxy)-4-(4-(3-methyl-2-oxo-2,3,4,5-tetrahydro-1H-benzo[d]azepin-1-yl)piperazin-1-yl)-N-((3-nitro-4-(((tetrahydro-2H-pyran-4-yl)methyl)amino)phenyl)sulfonyl)benzamide] | 500 to 5000 nM | < 20 nM | 200 to 2000 nM |
| O=C(NS(=O)(=O)c1ccc(NCC2CC3(COC3)C2)c([N+](=O)[O-])c1)c1ccc(N2CCN(C3CCCCc4c(Cl)cccc43)CC2)cc1Oc1cnc2[nH]ccc2c1 (stereo not drawn) [Compound 46, 2-((1H-pyrrolo[2,3-b]pyridin-5-yl)oxy)-N-((4-(((2-oxaspiro[3.3]heptan-6-yl)methyl)amino)-3-nitrophenyl)sulfonyl)-4-(4-(1-chloro-6,7,8,9-tetrahydro-5H-benzo[7]annulen-5-yl)piperazin-1-yl)benzamide] | < 50 nM | < 20 nM | 20 to 200 nM |
| O=C(NS(=O)(=O)c1ccc(NCC2CCOCC2)c([N+](=O)[O-])c1)c1ccc(N2CCN(C3CCCCc4c(C5=CCCC5)cccc43)CC2)cc1Oc1cnc2[nH]ccc2c1 (stereo not drawn) [Compound 47, 2-((1H-pyrrolo[2,3-b]pyridin-5-yl)oxy)-4-(4-(1-(cyclopent-1-en-1-yl)-6,7,8,9-tetrahydro-5H-benzo[7]annulen-5-yl)piperazin-1-yl)-N-((3-nitro-4-(((tetrahydro-2H-pyran-4-yl)methyl)amino)phenyl)sulfonyl)benzamide] | > 5000 nM | 20 to 200 nM | > 2000 nM |
| O=C(NS(=O)(=O)c1ccc(NCC2CCOCC2)c([N+](=O)[O-])c1)c1ccc(N2CCN(C3CCCCc4c(-c5cccnc5)cccc43)CC2)cc1Oc1cnc2[nH]ccc2c1 (stereo not drawn) [Compound 49, 2-((1H-pyrrolo[2,3-b]pyridin-5-yl)oxy)-N-((3-nitro-4-(((tetrahydro-2H-pyran-4-yl)methyl)amino)phenyl)sulfonyl)-4-(4-(1-(pyridin-3-yl)-6,7,8,9-tetrahydro-5H-benzo[7]annulen-5-yl)piperazin-1-yl)benzamide] | 500 to 5000 nM | < 20 nM | 200 to 2000 nM |
| C=C(C)c1cccc2c1CCCCC2N1CCN(c2ccc(C(=O)NS(=O)(=O)c3ccc(NCC4CCOCC4)c([N+](=O)[O-])c3)c(Oc3cnc4[nH]ccc4c3)c2)CC1 (stereo not drawn) [Compound 50, 2-((1H-pyrrolo[2,3-b]pyridin-5-yl)oxy)-N-((3-nitro-4-(((tetrahydro-2H-pyran-4-yl)methyl)amino)phenyl)sulfonyl)-4-(4-(1-(prop-1-en-2-yl)-6,7,8,9-tetrahydro-5H-benzo[7]annulen-5-yl)piperazin-1-yl)benzamide] | 50 to 500 nM | < 20 nM | 200 to 2000 nM |
| CC(C)c1cccc2c1CCCCC2N1CCN(c2ccc(C(=O)NS(=O)(=O)c3ccc(NCC4CCOCC4)c([N+](=O)[O-])c3)c(Oc3cnc4[nH]ccc4c3)c2)CC1 (stereo not drawn) [Compound 51, 2-((1H-pyrrolo[2,3-b]pyridin-5-yl)oxy)-4-(4-(1-isopropyl-6,7,8,9-tetrahydro-5H-benzo[7]annulen-5-yl)piperazin-1-yl)-N-((3-nitro-4-(((tetrahydro-2H-pyran-4-yl)methyl)amino)phenyl)sulfonyl)benzamide] | 500 to 5000 nM | < 20 nM | 200 to 2000 nM |
| O=C(NS(=O)(=O)c1ccc(NCC2CCOCC2)c([N+](=O)[O-])c1)c1ccc(N2CCN(C3CCCCc4c(-c5cn[nH]c5)cccc43)CC2)cc1Oc1cnc2[nH]ccc2c1 (stereo not drawn) [Compound 52, 4-(4-(1-(1H-pyrazol-4-yl)-6,7,8,9-tetrahydro-5H-benzo[7]annulen-5-yl)piperazin-1-yl)-2-((1H-pyrrolo[2,3-b]pyridin-5-yl)oxy)-N-((3-nitro-4-(((tetrahydro-2H-pyran-4-yl)methyl)amino)phenyl)sulfonyl)benzamide] | > 5000 nM | 20 to 200 nM | > 2000 nM |
| O=C(NS(=O)(=O)c1ccc(NCC2CCn3ccnc3C2)c([N+](=O)[O-])c1)c1ccc(N2CCN(C3CCCCc4c(Cl)cccc43)CC2)cc1Oc1cnc2[nH]ccc2c1 (stereo not drawn) [Compound 53, 2-((1H-pyrrolo[2,3-b]pyridin-5-yl)oxy)-4-(4-(1-chloro-6,7,8,9-tetrahydro-5H-benzo[7]annulen-5-yl)piperazin-1-yl)-N-((3-nitro-4-(((5,6,7,8-tetrahydroimidazo[1,2-a]pyridin-7-yl)methyl)amino)phenyl)sulfonyl)benzamide] | 50 to 500 nM | < 20 nM | < 20 nM |
